Converted amounts (≈) assume the structure as drawn. Like-named read-outs stand apart in the source and are kept apart here.
Tests used:
[1] = cited from earlier work
staphylococci = settings: cited from earlier work
[2] = Population pharmacokinetic model of dalbavancin; type: in vivo, patients
hepatic cytochromes = settings: ref 13; cited from earlier work
[3] = cited from earlier work; remark: listed apart in the source
[4] = tested on: C-reactive protein (C-RP) production; type: in vivo, patients
[5] = tested on: Staphylococcus epidermidis; settings: bloodstream infection isolates, 72 US and European medical centers; cited from earlier work
MRSA = settings: bloodstream infection isolates, 72 US and European medical centers; cited from earlier work
[6] = median of 1000 non-parametric bootstrap iterations
[7] = population estimate, final PK/PD model

clearance ([2]; human, plasma, intravenous, 1500 mg): 0.75 mL/min | CL, non-renal clearance of dalbavancin, bootstrap median [2, 6]: 0.028 L/h | Q, bootstrap median [2, 6]: 0.04 L/h | V1, bootstrap median [2, 6]: 5.98 L | V2, bootstrap median [2, 6]: 9.08 L | β_eGFR, bootstrap median [2, 6]: 0.005 | V1, volume of distribution of the central compartment [2, 7]: 5.93 L | V2, volume of distribution of the peripheral compartment [2, 7]: 9.55 L | β_eGFR, coefficient of eGFR when dalbavancin CL was scaled to eGFR ([2]; population estimate, final PK/PD model, eGFR by CKD-EPI): 0.0042 | free IC50 on C-RP production ([4]; from total IC50 […] mg/L considering plasma protein binding of 93%): 0.05 µg/mL | IC50, bootstrap median [4, 6]: 0.58 µg/mL (≈ 0.319 µM)
SMILES: CN[C@H]1C(=O)N[C@@H]2Cc3ccc(cc3)Oc3cc4cc(c3O[C@@H]3O[C@H](C(=O)O)[C@@H](O)[C@H](O)[C@H]3NC(=O)CCCCCCCCC(C)C)Oc3ccc(cc3Cl)[C@@H](O)[C@@H]3NC(=O)[C@H](NC(=O)[C@@H]4NC(=O)[C@@H](NC2=O)c2cc(cc(O)c2Cl)Oc2cc1ccc2O)c1ccc(O)c(c1)-c1c(O[C@H]2O[C@H](CO)[C@@H](O)[C@H](O)[C@@H]2O)cc(O)cc1[C@@H](C(=O)NCCCN(C)C)NC3=O [dalbavancin, Dalbavancin]
terminal half-life ([1]; intravenous route): 147 to 258 h | CL, population estimates of previous studies ([1]; ref 5, 25, 26): 0.043 to 0.057 L/h | V, population estimates of previous studies ([1]; ref 5, 25, 26): 15 to 15.9 L | administered dose excreted in urine ([1]; ref 13): up to 42% | MIC90, value at which 90% of the wild-type strains are inhibited (staphylococci): 0.0625 µg/mL | drug–drug interactions (hepatic cytochromes): no clinically relevant drug–drug interactions | substrate of the hepatic cytochromes (hepatic cytochromes): not a substrate of the hepatic cytochromes | plasma protein binding ([3]; ref 13): 93–98% | plasma protein binding ([3]; ref 15): 93% | kout, bootstrap median [4, 6]: 0.0038 h^–1 | kout, elimination rate of C-RP concentration in plasma ([4]; population estimate, final PK/PD model, 211 C-RP plasma concentrations): 0.0037 h^–1 | MIC90 [5]: 0.06 µg/mL (≈ 0.033 µM) | MIC90 (MRSA): 0.03 µg/mL (≈ 0.0165 µM)
